Values joined by “and” are separate entries in the source; they are usually repeats but may differ in a detail not shown here. Identical values can stand only once. Toxic doses and inconclusive results are not listed. Rule as the data show it: active = T/C of 150% or more; inactive = T/C below 125%.
Tested on: L1210 leukemia ip in BDF1 mice, survival T/C
Assay: NCI In Vivo Anticancer Drug Screen. Data for tumor model L1210 Leukemia (intraperitoneal) in B6D2F1 (BDF1) mice
Details: endpoint: mean survival time, higher = longer survival
How it was run: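 Antitumor effect is assessed in tumor-bearing animals. Survival in the compound arm is compared with a vehicle-dosed control arm and expressed as their quotient.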

[1] = dose: 100.0 mg/kg/injection, schedule: Q04DX003 (ip), vehicle: Klucel (hydroxypropylcellulose) (HPC)
[2] = dose: 200.0 mg/kg/injection, schedule: Q04DX003 (ip), vehicle: Klucel (hydroxypropylcellulose) (HPC)
[3] = dose: 400.0 mg/kg/injection, schedule: Q04DX003 (ip), vehicle: Klucel (hydroxypropylcellulose) (HPC)
[4] = dose: 100.0 mg/kg/injection, schedule: Q04DX003 (ip), vehicle: saline
[5] = dose: 200.0 mg/kg/injection, schedule: Q04DX003 (ip), vehicle: saline
[6] = dose: 400.0 mg/kg/injection, schedule: Q04DX003 (ip), vehicle: saline
[7] = dose: 100.0 mg/kg/injection, schedule: Q01DX001 (ip), vehicle: carboxymethylcellulose (CMC)
[8] = dose: 200.0 mg/kg/injection, schedule: Q01DX001 (ip), vehicle: carboxymethylcellulose (CMC)
[9] = dose: 100.0 mg/kg/injection, schedule: Q01DX009 (ip), vehicle: saline
[10] = dose: 150.0 mg/kg/injection, schedule: Q04DX003 (ip), vehicle: saline
[11] = dose: 200.0 mg/kg/injection, schedule: Q01DX009 (ip), vehicle: saline
[12] = dose: 400.0 mg/kg/injection, schedule: Q01DX009 (ip), vehicle: saline
[13] = dose: 100.0 mg/kg/injection, schedule: Q01DX001 (ip), vehicle: Klucel (hydroxypropylcellulose) (HPC)
[14] = dose: 200.0 mg/kg/injection, schedule: Q01DX001 (ip), vehicle: Klucel (hydroxypropylcellulose) (HPC)
[15] = dose: 100.0 mg/kg/injection, schedule: Q04DX002 (ip), vehicle: Klucel (hydroxypropylcellulose) (HPC)
[16] = dose: 200.0 mg/kg/injection, schedule: Q04DX002 (ip), vehicle: Klucel (hydroxypropylcellulose) (HPC)
[17] = dose: 400.0 mg/kg/injection, schedule: Q04DX002 (ip), vehicle: Klucel (hydroxypropylcellulose) (HPC)

Measured: T/C

O=C1c2cccnc2C(=O)N1Cc1ccccc1
inactive: dose: 100.0 mg/kg/injection, schedule: Q01DX009 (ip), vehicle: saline sonified 103 % of control | [1] 107 % of control | dose: 200.0 mg/kg/injection, schedule: Q01DX009 (ip), vehicle: saline sonified 96 % of control | [2] 103 % of control | dose: 400.0 mg/kg/injection, schedule: Q01DX009 (ip), vehicle: saline sonified 102 % of control | [3] 102 % of control

O=[N+]([O-])c1ccc(OCc2ccc(S(=O)(=O)F)c(Cl)c2)c(Cl)c1
inactive: dose: 100.0 mg/kg/injection, schedule: Q01DX009 (ip), vehicle: other 101 % of control | [4] 101 % of control | dose: 200.0 mg/kg/injection, schedule: Q01DX009 (ip), vehicle: other 108 % of control | [5] 104 % of control | dose: 400.0 mg/kg/injection, schedule: Q01DX009 (ip), vehicle: other 94 % of control | [6] 88 % of control

NC(CSS(=O)(=O)O)=NCc1ccoc1
inactive: dose: 12.5 mg/kg/injection, schedule: Q04DX002 (ip), vehicle: saline with Tween-80 98 % of control | dose: 25.0 mg/kg/injection, schedule: Q04DX002 (ip), vehicle: saline with Tween-80 98 % of control | dose: 50.0 mg/kg/injection, schedule: Q04DX002 (ip), vehicle: saline with Tween-80 95 % of control and 98 % of control

CC(O)CN1c2ccccc2Sc2ccc(Cl)cc21 (stereo not drawn)
inactive: [7] 97 % of control | [8] 92 % of control | dose: 400.0 mg/kg/injection, schedule: Q01DX001 (ip), vehicle: carboxymethylcellulose (CMC) 95 % of control

O=C1N(CO)C2C(N1CO)N(CO)C(=O)N2CO (stereo not drawn)
inactive: dose: 44.0 mg/kg/injection, schedule: Q04DX003 (ip), vehicle: saline 100 % of control | dose: 66.0 mg/kg/injection, schedule: Q04DX003 (ip), vehicle: saline 103 % of control | [9] 118 % of control | [4] 103 % of control | [10] 102 % of control | [11] 113 % of control | [5] 115 % of control | [12] 116 % of control | [6] 114 % of control

CCC(C)(C)c1ccc(O)c(C(=O)O)c1
inactive: [7] 90 % of control | [8] 95 % of control

CC(=O)Nc1ccc(OC(=O)Nc2c(C)cccc2C)cc1
inactive: [1] 100 % of control | [2] 91 % of control | [3] 91 % of control

Cc1nc2ccccc2[nH]c1=O
inactive: dose: 75.0 mg/kg/injection, schedule: Q04DX003 (ip), vehicle: saline 96 % of control | dose: 100.0 mg/kg/injection, schedule: Q01DX001 (ip), vehicle: other 97 % of control | [10] 100 % of control | dose: 200.0 mg/kg/injection, schedule: Q01DX001 (ip), vehicle: other 100 % of control | dose: 300.0 mg/kg/injection, schedule: Q04DX003 (ip), vehicle: saline 96 % of control | dose: 400.0 mg/kg/injection, schedule: Q01DX001 (ip), vehicle: other 93 % of control

Cc1ccc(NC(=O)c2ccccc2Cl)cc1Cl
inactive: dose: 25.0 mg/kg/injection, schedule: Q04DX004 (ip), vehicle: Klucel (hydroxypropylcellulose) (HPC) 89 % of control | dose: 50.0 mg/kg/injection, schedule: Q04DX004 (ip), vehicle: Klucel (hydroxypropylcellulose) (HPC) 98 % of control | dose: 100.0 mg/kg/injection, schedule: Q01DX009 (ip), vehicle: Klucel (hydroxypropylcellulose) (HPC) 96 % of control | [9] 110 % of control | [1] 95 % of control | [4] 120 % of control | dose: 100.0 mg/kg/injection, schedule: Q04DX004 (ip), vehicle: Klucel (hydroxypropylcellulose) (HPC) 88 % of control | dose: 135.0 mg/kg/injection, schedule: Q04DX004 (ip), vehicle: Klucel (hydroxypropylcellulose) (HPC) 96 % of control | dose: 200.0 mg/kg/injection, schedule: Q01DX009 (ip), vehicle: Klucel (hydroxypropylcellulose) (HPC) 94 % of control | [11] 102 % of control | [2] 95 % of control | dose: 400.0 mg/kg/injection, schedule: Q01DX009 (ip), vehicle: Klucel (hydroxypropylcellulose) (HPC) 98 % of control | [12] 102 % of control | [3] 96 % of control | [6] 115 % of control

CCCCNC(C)(C)CO
inactive: dose: 12.5 mg/kg/injection, schedule: Q01DX009 (ip), vehicle: saline 106 % of control | dose: 12.5 mg/kg/injection, schedule: Q04DX003 (ip), vehicle: saline 100 % of control | dose: 25.0 mg/kg/injection, schedule: Q01DX009 (ip), vehicle: saline 112 % of control | dose: 25.0 mg/kg/injection, schedule: Q04DX003 (ip), vehicle: saline 97 % of control | dose: 50.0 mg/kg/injection, schedule: Q01DX009 (ip), vehicle: saline 109 % of control | dose: 50.0 mg/kg/injection, schedule: Q04DX003 (ip), vehicle: saline 102 % of control | dose: 75.0 mg/kg/injection, schedule: Q01DX009 (ip), vehicle: saline 105 % of control

CS(=O)(=O)OCC(=O)O
inactive: [13] 93 % of control | [14] 97 % of control

CNc1cc(Cl)c(C#N)c(Cl)c1
inactive: [13] 105 % of control | [1] 94 % of control | [14] 105 % of control | [2] 100 % of control | dose: 400.0 mg/kg/injection, schedule: Q01DX001 (ip), vehicle: Klucel (hydroxypropylcellulose) (HPC) 103 % of control | [3] 99 % of control

CC(C)OC(=S)SCC(=O)c1ccccc1
inactive: [15] 92 % of control | [16] 101 % of control | [17] 99 % of control

Cc1cccc(C)c1OC(=O)NC1CCCCC1
inactive: [15] 107 % of control | [16] 89 % of control | [17] 96 % of control

COC(=O)c1ccccc1-c1c(C)cccc1[N+](=O)[O-]
inactive: dose: 100.0 mg/kg/injection, schedule: Q01DX009 (ip), vehicle: saline with Tween-80 105 % of control | dose: 200.0 mg/kg/injection, schedule: Q01DX009 (ip), vehicle: saline with Tween-80 90 % of control | dose: 400.0 mg/kg/injection, schedule: Q01DX009 (ip), vehicle: saline with Tween-80 100 % of control

Nc1ccc(Cl)nn1
inactive: dose: 25.0 mg/kg/injection, schedule: Q04DX002 (ip), vehicle: Klucel (hydroxypropylcellulose) (HPC) 97 % of control | dose: 50.0 mg/kg/injection, schedule: Q04DX002 (ip), vehicle: Klucel (hydroxypropylcellulose) (HPC) 97 % of control | [15] 100 % of control

Cc1ccc(OCc2c(COc3ccc(Cl)cc3)sc3ccc(Cl)cc23)cc1
inactive: dose: 12.5 mg/kg/injection, schedule: Q01DX009 (ip), vehicle: saline with Tween-80 97 % of control | dose: 25.0 mg/kg/injection, schedule: Q01DX009 (ip), vehicle: saline with Tween-80 95 % of control | dose: 25.0 mg/kg/injection, schedule: Q04DX003 (ip), vehicle: saline with Tween-80 87 % of control | dose: 50.0 mg/kg/injection, schedule: Q01DX009 (ip), vehicle: saline with Tween-80 101 % of control | dose: 50.0 mg/kg/injection, schedule: Q04DX003 (ip), vehicle: saline with Tween-80 87 % of control

COC(=O)CC(c1ccc(OC)cc1)C(CC(=O)OC)c1ccc(OC)cc1 (stereo not drawn)
inactive: [1] 98 % of control | [2] 93 % of control | [3] 104 % of control
